According to patent US6534524B1, “Indazole compounds and pharmaceutical compositions for inhibiting protein kinases, and methods for their use” (Agouron Pharmaceuticals, Inc., priority 1999, dated 2003):
Where two headings read alike, the source gives them in different places.

Tests used:
CDK4/Cyclin D3 complex = CDK4/Cyclin D3 complex (Homo sapiens, UniProt P11802); assay: CDK4/Cyclin D assay ([32P]ATP, Rb fragment)
CDK2/Cyclin A = CDK2/Cyclin A (Homo sapiens, UniProt P24941); assay: CDK2/Cyclin A assay ([32P]ATP, Rb fragment); type: biochemical; conditions: Table 3
[1] = target: unphosphorylated VEGF-R2Δ50 (FLVK) (Homo sapiens, UniProt P35968, DEL940-989/E990V); assay: VEGF-R2 coupled spectrophotometric assay, unphosphorylated VEGF-R2Δ50 (FLVK); conditions: FLVK Ki, Table 1
Sequence of unphosphorylated VEGF-R2Δ50 (FLVK) (P35968 with tags, fused parts or gaps DEL940-989/E990V limits assumed): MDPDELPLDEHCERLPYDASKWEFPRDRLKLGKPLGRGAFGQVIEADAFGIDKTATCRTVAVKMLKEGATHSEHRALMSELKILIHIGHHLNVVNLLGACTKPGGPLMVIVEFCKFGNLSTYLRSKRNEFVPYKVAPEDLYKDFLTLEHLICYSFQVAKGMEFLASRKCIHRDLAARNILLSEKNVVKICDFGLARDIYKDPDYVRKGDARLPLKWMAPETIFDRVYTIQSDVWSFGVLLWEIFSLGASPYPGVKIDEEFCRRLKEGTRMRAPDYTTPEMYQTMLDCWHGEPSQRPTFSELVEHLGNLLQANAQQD

[2] = Human liver microsome (HLM) assay; type: in vitro ADME; conditions: human liver microsomes, 5 μM test compound
Summary of the method: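 LC-MS quantified test compound remaining after 0 and 2 h incubation with human liver microsomes. Triplicate samples, clarified by 10 min centrifugation at 14000 g.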

human FGF-R1 = human FGF-R1 (Homo sapiens, UniProt P11362, C488A/C584S/L457V); assay: FGF-R spectrophotometric assay
Sequence of human FGF-R1 (P11362 456-766 L457V/C488A/C584S): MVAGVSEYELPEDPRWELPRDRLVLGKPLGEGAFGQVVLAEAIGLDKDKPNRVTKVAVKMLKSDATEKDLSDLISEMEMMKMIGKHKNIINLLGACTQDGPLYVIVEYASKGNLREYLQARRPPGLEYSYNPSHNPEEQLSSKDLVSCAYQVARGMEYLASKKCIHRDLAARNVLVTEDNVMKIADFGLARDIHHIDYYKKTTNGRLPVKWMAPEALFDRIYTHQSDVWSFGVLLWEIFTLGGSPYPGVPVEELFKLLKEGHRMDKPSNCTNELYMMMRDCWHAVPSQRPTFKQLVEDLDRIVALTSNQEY

[3] = Determination of inhibitor concentration in mouse plasma after intraperitoneal and oral dosing; type: in vivo; conditions: for concentration at 7 h: female
Summary of the method: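 Plasma levels quantified by HPLC or LC-MS using a standard curve prepared in mouse plasma, following ethyl acetate extraction with internal standard and sodium hydroxide. Sampling at 0.5, 1, 4 h (ocular bleed) and 7 h (cardiac puncture) after oral or intraperitoneal dosing.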

[4] = test system: human umbilical vein endothelial cells (HUVEC); assay: HUVEC proliferation assay (VEGF-stimulated, MTT); type: cell-based; conditions: Homo sapiens, HUVEC, + albumin; read-out: HUVEC + albumin IC50
[5] = IP, 25 mg/kg, vehicle PEG400:H2O pH 2.3 60:40
[6] = PO, 50 mg/kg, vehicle PEG400:H2O pH 2.3 60:40
[7] = PO, 25 mg/kg, vehicle PEG400:H2O pH 2.3 30:70
[8] = PO, 25 mg/kg, vehicle PEG400:H2O pH 2.3 30:70, read-out: Cmin (7 hr conc.)
[9] = IP, 25 mg/kg, vehicle PEG400:H2O pH 2.3 30:70
[10] = PO, 50 mg/kg, vehicle PEG400:H2O pH 2.3 30:70
[11] = IP, 25 mg/kg, vehicle PEG400:H2O pH 2.3 30:70, read-out: Cmin (7 hr conc.)

Sequence of CDK4/Cyclin D3 complex (P11802 whole entry, the tested form may be a part): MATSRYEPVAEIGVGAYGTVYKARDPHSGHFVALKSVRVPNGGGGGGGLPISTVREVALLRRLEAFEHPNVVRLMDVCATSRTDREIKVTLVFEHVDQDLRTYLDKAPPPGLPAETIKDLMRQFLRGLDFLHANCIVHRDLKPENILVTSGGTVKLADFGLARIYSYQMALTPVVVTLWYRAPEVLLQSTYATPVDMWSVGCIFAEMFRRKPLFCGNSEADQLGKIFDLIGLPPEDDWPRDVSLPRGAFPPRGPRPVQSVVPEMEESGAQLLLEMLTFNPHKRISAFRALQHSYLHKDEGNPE
Sequence of CDK4/Cyclin D3 complex (P30281 whole entry partner, the tested form may be a part): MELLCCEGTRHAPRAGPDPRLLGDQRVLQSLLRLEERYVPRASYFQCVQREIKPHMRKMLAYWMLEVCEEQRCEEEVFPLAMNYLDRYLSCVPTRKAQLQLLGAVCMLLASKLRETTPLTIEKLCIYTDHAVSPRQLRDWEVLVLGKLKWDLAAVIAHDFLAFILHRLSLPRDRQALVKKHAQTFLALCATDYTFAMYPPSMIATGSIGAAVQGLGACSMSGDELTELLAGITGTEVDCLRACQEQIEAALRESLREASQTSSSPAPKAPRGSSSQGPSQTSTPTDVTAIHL

Clc1ccc(/C=C/c2n[nH]c3cc(-c4ccncc4)ccc23)cc1 [Example 29(c), 6-Pyrid-4-yl-3-E-[2-(4-chlorophenyl)ethenyl]-1H-indazole]
Ki (CDK4/Cyclin D3 complex): 2000 nM
Ki (CDK2/Cyclin A): 2200 nM

O=C(Nc1cccc(Cl)c1)c1ccccc1Sc1ccc2c(/C=C/c3ccccn3)n[nH]c2c1 [Example 33(d), 6-[2-(3-Chlorophenylcarbamoyl)phenylsulfanyl]-3-E-[2-(pyridin-2-yl)ethenyl]-1H-indazole]
Ki [1]: 0.14 nM
% remain (HLM, 2 h) [2]: 22%
Ki (human FGF-R1): 24 nM
AUClast [3, 5]: 5080 ng·h/mL
plasma half-life (T1/2) [3, 5]: 1.6 h
AUClast [3, 6]: 4744 ng·h/mL
plasma half-life (T1/2) [3, 6]: 0.9 h
concentration at 7 h ([3]; IP, 25 mg/kg, vehicle PEG400:H2O pH 2.3 60:40, read-out: Cmin (7 hr conc.)): 113 ng/mL
concentration at 7 h ([3]; PO, 50 mg/kg, vehicle PEG400:H2O pH 2.3 60:40, read-out: Cmin (7 hr conc.)): 8 ng/mL

O=C(NNc1ccccn1)c1ccccc1Sc1ccc2c(/C=C/c3ccccn3)n[nH]c2c1 [Example 35(n)]
Ki [1]: 0.83 nM
% remain (HLM, 2 h) [2]: 47%
Ki (human FGF-R1): 92 nM
AUClast [3, 7]: 4818 ng·h/mL
Cmax [3, 7]: 3545 ng/mL
plasma half-life (T1/2) [3, 7]: 1.4 h
concentration at 7 h [3, 8]: 55 ng/mL

CONC(=O)c1ccccc1Sc1ccc2c(/C=C/c3ccccn3)n[nH]c2c1 [Example 35(r), 6-[2-(Methoxycarbamoyl)phenylsulfanyl]-3-E-[2-(pyridin-2-yl)ethenyl]-1H-indazole]
Ki [1]: 0.11 nM
% remain (HLM, 2 h) [2]: 51%
Ki (human FGF-R1): 20 nM
AUClast [3, 7]: 4261 ng·h/mL
plasma half-life (T1/2) [3, 7]: 1.3 h
concentration at 7 h [3, 8]: 67 ng/mL

CCn1nc(C)cc1C(=O)Nc1cccc(C(=O)c2ccc3c(/C=C/c4ccccn4)n[nH]c3c2)c1 [Example 41(a), 6-[3-((1-Ethyl-3-methyl-1H-pyrazol-5-yl)carboxamido)benzoyl]-3-E-[2-(pyridin-2-yl)ethenyl]-1H-indazole]
Ki [1]: 0.03 nM
% remain (HLM, 2 h) [2]: 96%
Ki (human FGF-R1): 20 nM
AUClast [3, 9]: 92823 ng·h/mL
Cmax [3, 9]: 32202 ng/mL
plasma half-life (T1/2) [3, 9]: 2.9 h
AUClast [3, 10]: 48998 ng·h/mL
Cmax [3, 10]: 18433 ng/mL
plasma half-life (T1/2) [3, 10]: 3.4 h
concentration at 7 h [3, 11]: 3860 ng/mL
concentration at 7 h ([3]; PO, 50 mg/kg, vehicle PEG400:H2O pH 2.3 30:70, read-out: Cmin (7 hr conc.)): 2460 ng/mL

C=CCn1nc(C)cc1C(=O)Nc1cc(C(=O)c2ccc3c(/C=C/c4ccccn4)n[nH]c3c2)ccc1C [Example 41(ff), 6-[3-((1-Allyl-3-methyl-1H-pyrazol-5-yl)carboxamido)-4-methylbenzoyl]-3-E-[2-(pyridin-2-yl)ethenyl]-1H-indazole]
% remain (HLM, 2 h) [2]: 68%
Ki (human FGF-R1): 12 nM
AUClast [3, 7]: 9176 ng·h/mL
plasma half-life (T1/2) [3, 7]: 2.0 h
concentration at 7 h [3, 8]: 410 ng/mL

CC(=O)Nc1cc(C(=O)c2ccc3c(/C=C/c4ccccn4)n[nH]c3c2)ccc1C [Example 41(gg), 6-(3-Acetamido-4-methylbenzoyl)-3-E-[2-(pyridin-2-yl)ethenyl]-1H-indazole]
Ki (human FGF-R1): 3.5 nM
AUClast [3, 7]: 2692 ng·h/mL
Cmax [3, 7]: 2079 ng/mL
plasma half-life (T1/2) [3, 7]: 1.1 h
concentration at 7 h [3, 8]: 29 ng/mL

Cc1cc(C(=O)Nc2cccc(C(=O)c3ccc4c(/C=C/c5ccccn5)n[nH]c4c3)c2)n(C)n1 [Example 41(p), 6-[3-((1,3-Dimethyl-1H-pyrazol-5-yl)carboxamido)benzoyl]-3-E-[2-(pyridin-2-yl)ethenyl]-1H-indazole]
Ki [1]: 0.06 nM
% remain (HLM, 2 h) [2]: 62%
Ki (human FGF-R1): 90 nM
AUClast [3, 9]: 4150 ng·h/mL
plasma half-life (T1/2) [3, 9]: 5.5 h
concentration at 7 h [3, 11]: 380 ng/mL

Cc1cc(C(=O)Nc2cccc(C(=O)c3ccc4c(/C=C/c5ccccn5)n[nH]c4c3)c2)n(C(C)C)n1 [Example 41(x), 6-[3-((1-Isopropyl-3-methyl-1H-pyrazol-5-yl)carboxamido)benzoyl]-3-E-[2-(pyridin-2-yl)ethenyl]-1H-indazole]
Ki (human FGF-R1): 3.4 nM
AUClast [3, 7]: 24174 ng·h/mL
Cmax [3, 7]: 4587 ng/mL
plasma half-life (T1/2) [3, 7]: 4.2 h
concentration at 7 h [3, 8]: 1270 ng/mL

CCn1nc(C)cc1C(=O)Nc1cc(Nc2ccc3c(/C=C/c4ccccn4)n[nH]c3c2)c(F)cc1C [Example 48(a), 6-[N-(5-((1-Ethyl-3-methyl-1H-pyrazol-5-yl)carboxanido)-2-fluoro-4-methylphenyl)amino]-3-E-[2-(pyridin-2-yl)ethenyl]-1H-indazole]
Ki [1]: 0.37 nM
IC50 [4]: 8.8 nM
% remain (HLM, 2 h) [2]: 55%
Ki (human FGF-R1): 14 nM
